This passage reports EC50 results from paper PMC12851007 (Angewandte Chemie (International Ed. in English), 2025).

Experiment [1] in a line: Dual-channel assay, CF channel, POPC vesicles. It is filed as biochemical. The conditions noted are these: 12.5 µM POPC⸧CX4/LCG-LUVs and 12.5 µM POPC⸧CF-LUVs in 10 mM Hepes, 175 mM glucose, pH 7.5, 25 °C; λexc 525/λem 545 nm; error = SD of fit, n = 1. From the text: With the established identical extravesicular conditions in both assays, we further envisaged a simultaneous measurement of both assays within the same solution to enhance the comparability of the measurements. This became possible after optimization of the excitation and emission wavelengths. […] A further optimization was required, because the dye concentrations in the CF assay and the CX4/LCG assay are largely different.^[ [51], [52] ^] Consequently, simultaneous monitoring requires the detection of a low amount of LCG in the presence of a high concentration of the much more brightly fluorescent CF, which challenges the dynamic range of a typical fluorescence spectrometer in a dual‐channel measurement. To reduce the fluorescence read‐out of CF, the excitation wavelength was shifted from the absorption maximum at ca. 490 nm to 525 nm, where CF has a much lower absorbance, and the emission in the CF channel was shifted from its maximum at ca. 515 nm to 545 nm to further reduce the fluorescence of CF. To maintain a high LCG fluorescence, excitation was performed at the absorption maximum at 369 nm. Since CF has a residual absorbance at this excitation wavelength, emission in the LCG channel was monitored at 475 nm instead of 502 nm to eliminate spill‐over of CF fluorescence into the LCG channel. […]
Time-dep endent fluores cence intensit y traces, I (t), were subsequentl y normalized to fractional intensities, If(t), using equation (1) and the concentration- dependent fractional intensities just before the addition of th e calibration co cktail, I f, w ere then normaliz ed to fr actional membran e activities, Y, using equation (2). The fractional membrane activities, Y, were subsequently plotted against the peptide concentration, c, and anal ysed using the Hill equation (3) to obtain the effective molar concentration, EC 50, and the Hill coefficient, n. For peptides with too low activity to determine Y max ex perimentall y, Y max was fixed at 1.0 during fitting. […]
Dual-Channel Measurements
(§1) Vesicles w ere prep ared a s described abov e (se e en try (4) in Table S2 and entry (3) in Table S3) and eluted with freshl y prepared 10 mM Hepes, 175mM glucos e, pH 7.5 i n the size exclusion chromatograph y. […] The fluorescence intensity w as simultaneous l y r eco rded in the CF chann el ( λ exc = 525 nm, λ em = 545 nm) and in the LCG channel ( λ exc = 369 nm, λ em = 475 nm) with an ex citation slit width of 5 nm and an emission slit width of 5 n m during addition of 20 µL peptide stock solution of varying concentrations at 60 s and 20 µL of a calibration

Experiment [2] can be described thus: Dual-channel assay, CF channel, POPC/POPS vesicles. It is filed as biochemical. To be noted: 12.5 µM POPC/POPS(9:1)⸧CX4/LCG-LUVs and 12.5 µM POPC/POPS(9:1)⸧CF-LUVs in 10 mM Hepes, 175 mM glucose, pH 7.5; error = SD of fit, n = 1.
Source text: Ultimately, we have also tested the new conditions with vesicles containing the anionic lipid 1‐palmitoyl‐2‐oleoyl‐phosphatidylserine (POPS) with TP10, Pep‐1, and the LRLLRW peptide (Figures S41–S43 and Table S11). The results confirmed that the absolute activity as well as the difference between the CF dye efflux assay and the tandem membrane assay was nearly unaffected by the presence of 10% POPS with the only exception that the membrane‐translocating ability of TP10 was enhanced.
Assay protocol. An appropriate volume of the liposome stock solutions was diluted to 2 mL with outside buffer in a 10 ×10 mm quartz glass cuvette to afford a phospholipid concentration of 25 µM. The cuvette was placed into a thermostatted fluorimeter sample holder and gentl y stirred at 300 rpm at (25.0± 0.1) °C. Subsequentl y, the time-dependent change in fluorescence intensity (C F: λ exc = 492 nm, λ em = 517 nm) was recorded during addition of 20 µL peptide stock solution of var ying concentrations at 60 s and 20µ L of a calibration cocktail (1. 6% […]
Time-dep endent fluores cence intensit y traces, I (t), were subsequentl y normalized to fractional intensities, If(t), using equation (1) and the concentration- dependent fractional intensities just before the addition of th e calibration co cktail, I f, w ere then normaliz ed to fr actional membran e activities, Y, using equation (2). […]
as §1

Where a SMILES comes first, the peptide text is derived from it. Where only a bound is given, the exact number is not on record here.

The EC50 is the concentration that produces a half-maximal response. Lower therefore signals an effect from little substance. On to `CC[C@H](C)[C@H](NC(=O)[C@H](CCCCN)NC(=O)[C@H](CCCCN)NC(=O)[C@H](C)NC(=O)[C@H](CC(C)C)NC(=O)[C@H](C)NC(=O)[C@H](C)NC(=O)[C@H](CC(C)C)NC(=O)[C@H](C)NC(=O)[C@H](CCCCN)NC(=O)[C@H](CC(C)C)NC(=O)[C@H](CC(N)=O)NC(=O)[C@@H](NC(=O)[C@H](CCCCN)NC(=O)CNC(=O)[C@H](CC(C)C)NC(=O)[C@H](CC(C)C)NC(=O)[C@H](Cc1ccc(O)cc1)NC(=O)CNC(=O)[C@H](C)N)[C@@H](C)CC)C(=O)N[C@@H](CC(C)C)C(=O)O` [TP10], for which the half-maximal effective concentration (EC50) in experiment [1] was 0.053 ± 0.007 µM; in experiment [2], 0.027 ± 0.002 µM.

With `CC[C@H](C)[C@H](NC(=O)[C@H](CCCCN)NC(=O)[C@@H](NC(=O)[C@@H](N)CCC(N)=O)[C@@H](C)CC)C(=O)N[C@@H](Cc1c[nH]c2ccccc12)C(=O)N[C@@H](Cc1ccccc1)C(=O)N[C@@H](CCC(N)=O)C(=O)N[C@@H](CC(N)=O)C(=O)N[C@@H](CCCNC(=N)N)C(=O)N[C@@H](CCCNC(=N)N)C(=O)N[C@@H](CCSC)C(=O)N[C@@H](CCCCN)C(=O)N[C@@H](Cc1c[nH]c2ccccc12)C(=O)N[C@@H](CCCCN)C(=O)N[C@@H](CCCCN)C(=O)O` (H-QIKIWFQNRRMKWKK-OH), the EC50 in experiment [1] was more than 1000 µM.

With `CC(C)C[C@H](NC(=O)[C@H](CC(C)C)NC(=O)[C@H](CCCNC(=N)N)NC(=O)[C@@H](N)CC(C)C)C(=O)N[C@@H](CCCNC(=N)N)C(=O)N[C@@H](Cc1c[nH]c2ccccc12)C(N)=O` [LRLLRW] (H-LRLLRW-NH2), the results for the EC50 in experiment [1] and in experiment [2] were 49 ± 6 µM and 28 ± 10 µM, respectively.

On to `CC(C)[C@H](NC(=O)[C@H](CCCCN)NC(=O)[C@H](CCCNC(=N)N)NC(=O)[C@H](CCCCN)NC(=O)[C@H](CCCCN)NC(=O)[C@H](CCCCN)NC(=O)[C@@H]1CCCN1C(=O)[C@H](CCC(N)=O)NC(=O)[C@H](CO)NC(=O)[C@H](Cc1c[nH]c2ccccc12)NC(=O)[C@H](CC(=O)O)NC(=O)[C@@H](NC(=O)[C@H](Cc1c[nH]c2ccccc12)NC(=O)[C@H](Cc1c[nH]c2ccccc12)NC(=O)[C@@H](NC(=O)[C@H](CC(=O)O)NC(=O)[C@H](Cc1c[nH]c2ccccc12)NC(=O)[C@H](Cc1c[nH]c2ccccc12)NC(=O)[C@@H](NC(=O)[C@H](CC(=O)O)NC(=O)[C@@H](N)CCCCN)[C@@H](C)O)[C@@H](C)O)[C@@H](C)O)C(=O)O` [Pep‐1] (H-KDTWWDTWWTDWSQPKKKRKV-OH), for which the EC50 in experiment [1] was more than 1000 µM; in experiment [2], 698 ± 55 µM.
